According to ChEMBL document CHEMBL1148200, “Kulokekahilide-2, a cytotoxic depsipeptide from a cephalaspidean mollusk Philinopsis speciosa” (J Nat Prod, 2004):

Assays:
P388 = assay: Cytotoxicity against mouse P388 cells; type: functional, cell-based
SK-OV-3 = assay: Cytotoxicity against human SKOV3 cells; type: functional, cell-based
A10 = assay: Cytotoxicity against rat A10 cells; type: cell-based
MDA-MB-435 = assay: Cytotoxicity against human MDA-MB-435 cells; type: functional, cell-based

C/C=C(\C)[C@H]1OC(=O)[C@H](C)NC(=O)[C@H]([C@@H](C)CC)NC(=O)CN(C)C(=O)[C@H](Cc2ccccc2)N(C)C(=O)[C@@H](C)NC(=O)[C@@H](CC(C)C)OC(=O)/C(C)=C/C[C@H](O)[C@@H]1C
IC50 (P388): 4.2 nM | IC50 (SK-OV-3): 7.5 nM | IC50 (A10): 59.1 nM | IC50 (MDA-MB-435): 14.6 nM
